# According to patent US12344600B2, “c-Myc mRNA translation modulators and uses thereof in the treatment of cancer” (Anima Biotech Inc., priority 2022, dated 2025):
# System: c-Myc
# Test: c-Myc immunofluorescence assay
# Assay type: cell-based, human
# Settings: A549 cells, 24 hours, anti-c-Myc immunofluorescence
# Outline: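 Read-out is imaged c-Myc immunofluorescence, nucleus-segmented, in A549 lung carcinoma cells exposed to compound dose series for 24 h after 48 h growth. Fixation 4% paraformaldehyde, Triton permeabilization, antibody staining at room temperature; EC50 from logistic fit of signal versus concentration.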
row,SMILES,Myc Efficacy (−LogEC50)
1,"Cc1ccc(CN2CCC(CNC(=O)C3CCN(c4nc(-c5ccc(OC(F)(F)F)cc5)no4)CC3)C2)cc1 (stereo not drawn) [Compound 237, N-((1-(4-methylbenzyl)pyrrolidin-3-yl)methyl)-1-(3-(4-(trifluoromethoxy)phenyl)-1,2,4-oxadiazol-5-yl)piperidine-4-carboxamide]",++ (++ ≥5 and <6)
2,"COc1ccc(-c2noc(N3CCC(C(=O)NC4CCN(c5ccccc5)C4)CC3)n2)cc1 (stereo not drawn) [Compound 346, 1-(3-(4-methoxyphenyl)-1,2,4-oxadiazol-5-yl)-N-(1-phenylpyrrolidin-3-yl)piperidine-4-carboxamide]",++ (++ ≥5 and <6)
3,"COc1ccc(-c2noc(N3CCC(C(=O)NCC4CCN(CC5CC(N)C5)C4)CC3)n2)cc1 (stereo not drawn) [Compound 394, N-((1-(((1s,3s)-3-aminocyclobutyl)methyl)pyrrolidin-3-yl)methyl)-1-(3-(4-methoxyphenyl)-1,2,4-oxadiazol-5-yl)piperidine-4-carboxamide]",+ (+ >3 and <5)
4,"COc1ccc(-c2noc(N3CCC(C(=O)NC4(c5ccccc5)CC4)CC3)n2)cc1 [Compound 264, 1-(3-(4-methoxyphenyl)-1,2,4-oxadiazol-5-yl)-N-(1-phenylcyclopropyl)piperidine-4-carboxamide]",+ (+ >3 and <5)
5,"COc1ccc(-c2noc(N3CCC(C(=O)NCC4CCN(C[C@H]5CCCCN5)C4)CC3)n2)cc1 (stereo partly drawn) [Compound 415, 1-(3-(4-methoxyphenyl)-1,2,4-oxadiazol-5-yl)-N-((1-(((R)-piperidin-2-yl)methyl)pyrrolidin-3-yl)methyl)piperidine-4-carboxamide]",+ (+ >3 and <5)
6,"COc1ccc(-c2noc(N3CCC(C(=O)NCC4CCCc5cccnc54)CC3)n2)cc1 (stereo not drawn) [Compound 301, 1-(3-(4-methoxyphenyl)-1,2,4-oxadiazol-5-yl)-N-((5,6,7,8-tetrahydroquinolin-8-yl)methyl)piperidine-4-carboxamide]",+ (+ >3 and <5)
7,"COc1ccc(-c2noc(N3CCC(C(=O)NCCCN4CCCC(C)C4)CC3)n2)cc1 (stereo not drawn) [Compound 124, 1-(3-(4-methoxyphenyl)-1,2,4-oxadiazol-5-yl)-N-(3-(3-methylpiperidin-1-yl)propyl)piperidine-4-carboxamide]",+ (+ >3 and <5)
8,"COc1ccc(-c2noc(N3CCC(C(=O)NCc4ccccc4OC(F)F)CC3)n2)cc1 [Compound 284, N-(2-(difluoromethoxy)benzyl)-1-(3-(4-methoxyphenyl)-1,2,4-oxadiazol-5-yl)piperidine-4-carboxamide]",+ (+ >3 and <5)
9,"COc1ccc(-c2noc(N3CCC(C(=O)NCC(O)Cc4ccccc4)CC3)n2)cc1 (stereo not drawn) [Compound 305, N-(2-hydroxy-3-phenylpropyl)-1-(3-(4-methoxyphenyl)-1,2,4-oxadiazol-5-yl)piperidine-4-carboxamide]",+ (+ >3 and <5)
10,"Cc1ccc(CN2CCC(CNC(=O)C3CCN(c4nc(-c5ccc(O)cc5)no4)CC3)C2)cc1 (stereo not drawn) [Compound 170, 1-(3-(4-hydroxyphenyl)-1,2,4-oxadiazol-5-yl)-N-((1-(4-methylbenzyl)pyrrolidin-3-yl)methyl)piperidine-4-carboxamide]",+ (+ >3 and <5)
11,"Cc1ccc(CN2CCC(CNC(=O)C3CCN(c4nc(-c5ccccc5Cl)no4)CC3)C2)cc1 (stereo not drawn) [Compound 156, 1-(3-(2-chlorophenyl)-1,2,4-oxadiazol-5-yl)-N-((1-(4-methylbenzyl)pyrrolidin-3-yl)methyl)piperidine-4-carboxamide]",+ (+ >3 and <5)
12,"COc1ccc(-c2noc(N3CCC(C(=O)NCC4CCN(Cc5cc(C)ccn5)C4)CC3)n2)cc1 (stereo not drawn) [Compound 326, 1-(3-(4-methoxyphenyl)-1,2,4-oxadiazol-5-yl)-N-((1-((4-methylpyridin-2-yl)methyl)pyrrolidin-3-yl)methyl)piperidine-4-carboxamide]",++ (++ ≥5 and <6)
13,"CCN(CC)CCCNC(=O)C1CCN(c2nc(-c3ccc(OC)cc3)no2)CC1 [Compound 113, N-(3-(diethylamino)propyl)-1-(3-(4-methoxyphenyl)-1,2,4-oxadiazol-5-yl)piperidine-4-carboxamide]",+ (+ >3 and <5)
14,"COc1ccc(-c2noc(N3CCC(C(=O)NC4CCC5(CCOCC5)CC4)CC3)n2)cc1 [Compound 312, 1-(3-(4-methoxyphenyl)-1,2,4-oxadiazol-5-yl)-N-(3-oxaspiro[5.5]undecan-9-yl)piperidine-4-carboxamide]",+ (+ >3 and <5)
15,"CN1CCC[C@H](CN2CCC(CNC(=O)C3CCN(c4nc(-c5ccc(Cl)cc5)no4)CC3)C2)C1 (stereo partly drawn) [Compound 468, 1-(3-(4-chlorophenyl)-1,2,4-oxadiazol-5-yl)-N-((1-(((S)-1-methylpiperidin-3-yl)methyl)pyrrolidin-3-yl)methyl)piperidine-4-carboxamide]",++ (++ ≥5 and <6)
16,"COc1ccc(-c2noc(N3CCN(C(=O)Nc4ccccc4)CC3)n2)cc1 [Compound 209, 4-(3-(4-methoxyphenyl)-1,2,4-oxadiazol-5-yl)-N-phenylpiperazine-1-carboxamide]",+ (+ >3 and <5)
17,"C#CCCC1(CCN2CCC(CNC(=O)C3CCN(c4nc(-c5ccc(OC)cc5)no4)CC3)C2)N=N1 (stereo not drawn) [Compound 286, N-((1-(2-(3-(but-3-yn-1-yl)-3H-diazirin-3-yl)ethyl)pyrrolidin-3-yl)methyl)-1-(3-(4-methoxyphenyl)-1,2,4-oxadiazol-5-yl)piperidine-4-carboxamide]",++ (++ ≥5 and <6)
18,"COc1ccc(-c2noc(N3CCC(C(=O)NCc4cccnc4)CC3)n2)cc1 [Compound 116, 1-(3-(4-methoxyphenyl)-1,2,4-oxadiazol-5-yl)-N-(pyridin-3-ylmethyl)piperidine-4-carboxamide]",+ (+ >3 and <5)
19,"COc1ccc(-c2noc(N3CCC(C(=O)NCC4CCN(C5CCCOC5)C4)CC3)n2)cc1 (stereo not drawn) [Compound 396, 1-(3-(4-methoxyphenyl)-1,2,4-oxadiazol-5-yl)-N-((1-(tetrahydro-2H-pyran-3-yl)pyrrolidin-3-yl)methyl)piperidine-4-carboxamide]",+ (+ >3 and <5)
20,"O=C(NCC1(CN2CCC(Cc3ccccn3)CC2)CC1)N1CCN(c2nc(-c3ccc(OC(F)(F)F)cc3)no2)CC1 [Compound 450, N-((1-((4-(pyridin-2-ylmethyl)piperidin-1-yl)methyl)cyclopropyl)methyl)-4-(3-(4-(trifluoromethoxy)phenyl)-1,2,4-oxadiazol-5-yl)piperazine-1-carboxamide]",++ (++ ≥5 and <6)
21,"COc1ccc(-c2noc(C3CCC(C(=O)NCC4CCN(CCO)C4)CC3)n2)cc1 (stereo not drawn) [Compound 215, (1s,4s)-N-((1-(2-hydroxyethyl)pyrrolidin-3-yl)methyl)-4-(3-(4-methoxyphenyl)-1,2,4-oxadiazol-5-yl)cyclohexane-1-carboxamide]",+ (+ >3 and <5)
22,"COc1ccc(-c2noc(N3CCC(C(=O)NCC4CCN(Cc5ncc(C)s5)C4)CC3)n2)cc1 (stereo not drawn) [Compound 407, 1-(3-(4-methoxyphenyl)-1,2,4-oxadiazol-5-yl)-N-((1-((5-methylthiazol-2-yl)methyl)pyrrolidin-3-yl)methyl)piperidine-4-carboxamide]",++ (++ ≥5 and <6)
23,"O=C(NCCCN1CCC(Cc2ccccn2)CC1)C1CCN(c2nc(-c3ccc(OC(F)F)cc3)no2)CC1 [Compound 453, 1-(3-(4-(difluoromethoxy)phenyl)-1,2,4-oxadiazol-5-yl)-N-(3-(4-(pyridin-2-ylmethyl)piperidin-1-yl)propyl)piperidine-4-carboxamide]",+++ (+++ ≥6)
24,"O=C(NCCCN1CCC(Cc2ccccn2)CC1)N1CCN(c2nc(-c3ccc(F)cc3)no2)CC1 [Compound 430, 4-(3-(4-fluorophenyl)-1,2,4-oxadiazol-5-yl)-N-(3-(4-(pyridin-2-ylmethyl)piperidin-1-yl)propyl)piperazine-1-carboxamide]",+++ (+++ ≥6)
25,"CCCCN(CC)CCCNC(=O)C1CCN(c2nc(-c3ccc(OC)cc3)no2)CC1 [Compound 102, N-(3-(butyl(ethyl)amino)propyl)-1-(3-(4-methoxyphenyl)-1,2,4-oxadiazol-5-yl)piperidine-4-carboxamide]",+ (+ >3 and <5)
26,"COc1ccc(-c2noc(C3CCC(C(=O)NCC4CCN(Cc5ccccc5)C4)CC3)n2)cc1 (stereo not drawn) [Compound 172, (1s,4s)-N-((1-benzylpyrrolidin-3-yl)methyl)-4-(3-(4-methoxyphenyl)-1,2,4-oxadiazol-5-yl)cyclohexane-1-carboxamide]",++ (++ ≥5 and <6)
27,"COc1ccc(-c2noc(N3CCC(C(=O)NCC4CCN(CC5CC5)C4)CC3)n2)cc1 (stereo not drawn) [Compound 220, N-((1-(cyclopropylmethyl)pyrrolidin-3-yl)methyl)-1-(3-(4-methoxyphenyl)-1,2,4-oxadiazol-5-yl)piperidine-4-carboxamide]",+ (+ >3 and <5)
28,"COc1ccc(-c2noc(N3CCC(C(=O)NCc4ccc(OC)c(C(F)(F)F)c4)CC3)n2)cc1 [Compound 308, N-(4-methoxy-3-(trifluoromethyl)benzyl)-1-(3-(4-methoxyphenyl)-1,2,4-oxadiazol-5-yl)piperidine-4-carboxamide]",+ (+ >3 and <5)
29,"COc1ccc(-c2n[nH]c(N3CCC(C(=O)NCC4CCN(Cc5ccc(C)cc5)C4)CC3)n2)cc1 (stereo not drawn) [Compound 169, 1-(3-(4-methoxyphenyl)-1H-1,2,4-triazol-5-yl)-N-((1-(4-methylbenzyl)pyrrolidin-3-yl)methyl)piperidine-4-carboxamide]",+ (+ >3 and <5)
30,"COc1ccc(-c2cccc(N3CCC(C(=O)NCC4CCN(Cc5ccc(C)cc5)C4)CC3)n2)cc1 (stereo not drawn) [Compound 157, 1-(6-(4-methoxyphenyl)pyridin-2-yl)-N-((1-(4-methylbenzyl)pyrrolidin-3-yl)methyl)piperidine-4-carboxamide]",++ (++ ≥5 and <6)
